Data taken from ChEMBL document CHEMBL4261621, “Synthesis of enamino-2-oxindoles via conjugate addition between α-azido ketones and 3-alkenyl oxindoles: Cytotoxicity evaluation and apoptosis inducing studies” (Bioorg Med Chem Lett, 2018).
Active and inactive are the calls of the source. The rule behind the calls is not given here.

Tests used:
HCT-15 [1] = assay: Cytotoxicity against human HCT15 cells at 30 uM after 48 hrs by MTT assay relative to control; assay type: functional
NCI-H460 [2] = assay: Cytotoxicity against human NCI-H460 cells at 30 uM after 48 hrs by MTT assay relative to control; assay type: functional
A549 [3] = assay: Cytotoxicity against human A549 cells at 30 uM after 48 hrs by MTT assay relative to control; assay type: functional
HeLa = assay: Cytotoxicity against human HeLa cells at 30 uM after 48 hrs by MTT assay relative to control; assay type: functional
HCT-116 = assay: Cytotoxicity against human HCT116 cells after 72 hrs by MTT assay; assay type: functional, cell-based; conditions: HCT-116, 72 h
HCT-15 [4] = assay: Cytotoxicity against human HCT15 cells after 72 hrs by MTT assay; assay type: functional, cell-based; conditions: HCT-15, 72 h
A549 [5] = assay: Cytotoxicity against human A549 cells after 72 hrs by MTT assay; assay type: functional, cell-based; conditions: A549, 72 h
MDA-MB-231 = assay: Cytotoxicity against human MDA-MB-231 cells after 72 hrs by MTT assay; assay type: functional, cell-based; conditions: MDA-MB-231, 72 h
NCI-H460 [6] = assay: Induction of morphological changes in human NCI-H460 cells assessed as cell detachment after 72 hrs by phase contrast microscopic analysis; assay type: functional, cell-based
NCI-H460 [7] = assay: Induction of apoptosis in human NCI-H460 cells assessed as chromatin condensation at 0.25 to 10 uM after 72 hrs by acridine orange/ethidium bromide staining based fluorescence microscopic analysis; assay type: functional, cell-based
NCI-H460 [8] = assay: Induction of apoptosis in human NCI-H460 cells assessed as cell shrinkage at 0.25 to 10 uM after 72 hrs by acridine orange/ethidium bromide staining based fluorescence microscopic analysis; assay type: functional
NCI-H460 [9] = assay: Induction of apoptosis in human NCI-H460 cells assessed as membrane blebbing at 0.25 to 10 uM after 72 hrs by acridine orange/ethidium bromide staining based fluorescence microscopic analysis; assay type: functional, cell-based
NCI-H460 [10] = assay: Induction of mitochondrial membrane potential loss in human NCI-H460 cells assessed as depolarized cell population at 1 uM after 72 hrs by JC1 staining based flow cytometry (reference value: 11.63%); assay type: functional
NCI-H460 [11] = assay: Induction of mitochondrial membrane potential loss in human NCI-H460 cells assessed as depolarized cell population at 2.5 uM after 72 hrs by JC1 staining based flow cytometry (reference value: 11.63%); assay type: functional
NCI-H460 [12] = assay: Induction of mitochondrial membrane potential loss in human NCI-H460 cells assessed as depolarized cell population at 10 uM after 72 hrs by JC1 staining based flow cytometry (reference value: 11.63%); assay type: functional
NCI-H460 [13] = assay: Induction of apoptosis in human NCI-H460 cells assessed as early apoptotic cells at 1 uM after 72 hrs by Annexin V-alexa fluor 488/propidium iodide staining based flow cytometry (reference value: 0.77%); assay type: functional
NCI-H460 [14] = assay: Induction of apoptosis in human NCI-H460 cells assessed as late apoptotic cells at 1 uM after 72 hrs by Annexin V-alexa fluor 488/propidium iodide staining based flow cytometry (reference value: 0.34%); assay type: functional
NCI-H460 [15] = assay: Induction of apoptosis in human NCI-H460 cells assessed as necrotic cells at 1 uM after 72 hrs by Annexin V-alexa fluor 488/propidium iodide staining based flow cytometry (reference value: 0.34%); assay type: functional
NCI-H460 [16] = assay: Induction of apoptosis in human NCI-H460 cells assessed as viable cells at 2.5 uM after 72 hrs by Annexin V-alexa fluor 488/propidium iodide staining based flow cytometry (reference value: 98.55%); assay type: functional; conditions: NCI-H460, 72 h, read-out: Activity
NCI-H460 [17] = assay: Induction of apoptosis in human NCI-H460 cells assessed as late apoptotic cells at 2.5 uM after 72 hrs by Annexin V-alexa fluor 488/propidium iodide staining based flow cytometry (reference value: 0.34%); assay type: functional
NCI-H460 [18] = assay: Induction of apoptosis in human NCI-H460 cells assessed as necrotic cells at 2.5 uM after 72 hrs by Annexin V-alexa fluor 488/propidium iodide staining based flow cytometry (reference value: 0.34%); assay type: functional
NCI-H460 [19] = assay: Induction of apoptosis in human NCI-H460 cells assessed as viable cells at 5 uM after 72 hrs by Annexin V-alexa fluor 488/propidium iodide staining based flow cytometry (reference value: 98.55%); assay type: functional; conditions: NCI-H460, 72 h, read-out: Activity
NCI-H460 [20] = assay: Induction of apoptosis in human NCI-H460 cells assessed as late apoptotic cells at 5 uM after 72 hrs by Annexin V-alexa fluor 488/propidium iodide staining based flow cytometry (reference value: 0.34%); assay type: functional
NCI-H460 [21] = assay: Induction of apoptosis in human NCI-H460 cells assessed as necrotic cells at 5 uM after 72 hrs by Annexin V-alexa fluor 488/propidium iodide staining based flow cytometry (reference value: 0.34%); assay type: functional
NCI-H460 [22] = assay: Induction of apoptosis in human NCI-H460 cells assessed as early apoptotic cells at 10 uM after 72 hrs by Annexin V-alexa fluor 488/propidium iodide staining based flow cytometry (reference value: 0.77%); assay type: functional
NCI-H460 [23] = assay: Induction of apoptosis in human NCI-H460 cells assessed as late apoptotic cells at 10 uM after 72 hrs by Annexin V-alexa fluor 488/propidium iodide staining based flow cytometry (reference value: 0.34%); assay type: functional
NCI-H460 [24] = assay: Induction of apoptosis in human NCI-H460 cells assessed as necrotic cells at 10 uM after 72 hrs by Annexin V-alexa fluor 488/propidium iodide staining based flow cytometry (reference value: 0.34%); assay type: functional
NCI-H460 [25] = assay: Inhibition of colony formation in human NCI-H460 cells supplemented with fresh medium containing compounds every 3 days measured after 7 days by crystal violet staining based assay; assay type: functional, cell-based
NCI-H460 [26] = assay: Cell cycle arrest in human NCI-H460 cells assessed as accumulation at G0/G1 phase at 1 uM after 24 hrs by propidium iodide staining based flow cytometry (reference value: 49.6%); assay type: functional
NCI-H460 [27] = assay: Cell cycle arrest in human NCI-H460 cells assessed as accumulation at S phase at 1 uM after 24 hrs by propidium iodide staining based flow cytometry (reference value: 9.93%); assay type: functional
NCI-H460 [28] = assay: Cell cycle arrest in human NCI-H460 cells assessed as accumulation at sub-G1 phase at 2.5 uM after 24 hrs by propidium iodide staining based flow cytometry (reference value: 0.99%); assay type: functional
NCI-H460 [29] = assay: Cell cycle arrest in human NCI-H460 cells assessed as accumulation at G2/M phase at 2.5 uM after 24 hrs by propidium iodide staining based flow cytometry (reference value: 35.49%); assay type: functional
NCI-H460 [30] = assay: Cell cycle arrest in human NCI-H460 cells assessed as accumulation at sub-G1 phase at 5 uM after 24 hrs by propidium iodide staining based flow cytometry (reference value: 0.99%); assay type: functional
NCI-H460 [31] = assay: Cell cycle arrest in human NCI-H460 cells assessed as accumulation at G0/G1 phase at 5 uM after 24 hrs by propidium iodide staining based flow cytometry (reference value: 49.6%); assay type: functional
NCI-H460 [32] = assay: Cell cycle arrest in human NCI-H460 cells assessed as accumulation at sub-G1 phase at 10 uM after 24 hrs by propidium iodide staining based flow cytometry (reference value: 0.99%); assay type: functional
NCI-H460 [33] = assay: Cell cycle arrest in human NCI-H460 cells assessed as accumulation at G2/M phase at 10 uM after 24 hrs by propidium iodide staining based flow cytometry (reference value: 35.49%); assay type: functional

Which Activity (HCT-15 [1]) does the source give for `CCOC(=O)/C(=C(\N)C(=O)c1ccccc1)C1C(=O)N(C)c2ccc(F)cc21` (stereo unspecified) here?
Its Activity is over 50%.

What about the Activity (NCI-H460 [2]) of the same molecule?
The Activity was over 50%.

What about the Activity (A549 [3]) of the same molecule?
The Activity was over 50%.

And the Activity (HeLa)?
The Activity was over 50%.

What about the IC50 (HCT-116) of the same molecule?
The IC50 was 5.14 µM.

And the IC50 (HCT-15 [4])?
The IC50 was 2.97 µM.

What about the IC50 (A549 [5]) of the same molecule?
Its IC50 is 3.51 µM.

And the IC50 (MDA-MB-231)?
The IC50 was 6.27 µM.

And the Activity (NCI-H460 [6])?
The Activity was “Dose-dependent effect”.

What about the Activity (NCI-H460 [7]) of the same molecule?
The Activity was “Active”.

What about the Activity (NCI-H460 [8]) of the same molecule?
The Activity was “Active”.

What about the Activity (NCI-H460 [9]) of the same molecule?
Its Activity is “Active”.

What about the Activity (NCI-H460 [10]) of the same molecule?
Its Activity is 42.95%.

What about the Activity (NCI-H460 [11]) of the same molecule?
Its Activity is 71.6%.

And the Activity (NCI-H460 [12])?
The Activity was 90.49%.

What about the Activity (NCI-H460 [13]) of the same molecule?
Its Activity is 8.72%.

And the Activity (NCI-H460 [14])?
Its Activity is 3.15%.

And the Activity (NCI-H460 [15])?
The Activity was 0.24%.

And the viability at 2.5 µM (NCI-H460 [16])?
The viability at 2.5 µM was 75.9%.

And the Activity (NCI-H460 [17])?
Its Activity is 4.4%.

What about the Activity (NCI-H460 [18]) of the same molecule?
The Activity was 0.34%.

What about the viability at 5 µM (NCI-H460 [19]) of the same molecule?
Its viability at 5 µM is 61.1%.

What about the Activity (NCI-H460 [20]) of the same molecule?
Its Activity is 3.27%.

And the Activity (NCI-H460 [21])?
Its Activity is 0.21%.

What about the Activity (NCI-H460 [22]) of the same molecule?
Its Activity is 57.78%.

What about the Activity (NCI-H460 [23]) of the same molecule?
Its Activity is 1.78%.

What about the Activity (NCI-H460 [24]) of the same molecule?
Its Activity is 0.03%.

And the inhibition (NCI-H460 [25])?
The inhibition was “Dose-dependent effect”.

What about the Activity (NCI-H460 [26]) of the same molecule?
Its Activity is 9.77%.

What about the Activity (NCI-H460 [27]) of the same molecule?
Its Activity is 6.55%.

And the Activity (NCI-H460 [28])?
Its Activity is 9.91%.

And the Activity (NCI-H460 [29])?
Its Activity is 64.03%.

What about the Activity (NCI-H460 [30]) of the same molecule?
The Activity was 11.94%.

What about the Activity (NCI-H460 [31]) of the same molecule?
Its Activity is 11.17%.

And the Activity (NCI-H460 [32])?
The Activity was 11.66%.

What about the Activity (NCI-H460 [33]) of the same molecule?
Its Activity is 67.37%.
